Earlier results on one compound are cited in PubChem BioAssay AID1259409 (Chemical Carcinogenesis Research Information System (CCRIS), 2018).

The subject of the data set is rodent chemically induced tumor inhibition, incidence and multiplicity. As to the kind of experiment: CCRIS tumor inhibitor studies.

`Cn1c(=O)c2[nH]cnc2n(C)c1=O`: the “tumour outcome (control, treated, inhibition, significance)” value (Carcinogen: 1,2-DIMETHYLHYDRAZINE, 540-73-8, Dose [Inhibitor]: 0, 600 MG/L IN DRINKING WATER FOR DURATION OF STUDY BEGINNING 7 D PRIOR TO CARCINOGEN TREATMENT (STUDY DURATION: 8 MO), Route [Inhibitor]: ORAL, Species: RAT, Strain/Sex: BD6/MALE, Target Tissue: Type of Lesion: INTESTINE: TUMOR, Dose [Carcinogen]: 20 MG/KG BW 1/WK FOR 20 WK, Promoter: NONE USED) is 100%, 100%, 0%, not significant; the “tumour outcome (control, treated, inhibition, significance)” value (Carcinogen: 4-(METHYLNITROSAMINO)-1-(3-PYRIDLY)-1-BUTANONE [64091-91-4], Dose [Inhibitor]: 2.5 MG/KG BW 3X/WK FOR 31 WK BEGINNING 1 WK POST LAST CARCINOGEN DOSE (STUDY DURATION: 52 WK), Route [Inhibitor]: SUBCUTANEOUS, Species: HAMSTER, Strain/Sex: SYRIAN/MALE, Target Tissue: Type of Lesion: LUNG: TUMOR, Dose [Carcinogen]: 10 MG/KG BW 3X/WK FOR 20 WK (STUDY DURATION: 52 WK), Promoter: NONE) is listed as 12/15 (80.0%), 15/15 (100.0%), -25%, not calculated; the “tumour outcome (control, treated, inhibition, significance)” value (Carcinogen: 4-(METHYLNITROSAMINO)-1-(3-PYRIDLY)-1-BUTANONE [64091-91-4], Dose [Inhibitor]: 2.5 MG/KG BW 3X/WK FOR 31 WK BEGINNING 1 WK POST LAST CARCINOGEN DOSE (STUDY DURATION: 52 WK), Route [Inhibitor]: SUBCUTANEOUS, Species: HAMSTER, Strain/Sex: SYRIAN/MALE, Target Tissue: Type of Lesion: NASAL CAVITY: TUMOR, Dose [Carcinogen]: 10 MG/KG BW 3X/WK FOR 20 WK (STUDY DURATION: 52 WK), Promoter: NONE) is on record as 4/15 (26.7%), 4/15 (26.7%), 0%, not calculated; the “tumour outcome (control, treated, inhibition, significance)” value (Carcinogen: DIETHYLNITROSAMINE, 55-18-5, Dose [Inhibitor]: 0, 600 MG/L IN DRINKING WATER BEGINNING 3 D PRIOR TO FIRST CARCINOGEN DOSE AND CONTINUING TO 14 D POST LAST CARCINOGEN D, Route [Inhibitor]: ORAL, Species: RAT, Strain/Sex: BD6/FEMALE, Target Tissue: Type of Lesion: ESOPHAGUS: TUMOR, Dose [Carcinogen]: 80 MG/KG BW 1/WK FOR 8 WK, Promoter: NONE USED) was 15%, 9%, 40%, not significant; the “tumour outcome (control, treated, inhibition, significance)” value (Carcinogen: DIETHYLNITROSAMINE, 55-18-5, Dose [Inhibitor]: 0, 600 MG/L IN DRINKING WATER BEGINNING 3 D PRIOR TO FIRST CARCINOGEN DOSE AND CONTINUING TO 14 D POST LAST CARCINOGEN D, Route [Inhibitor]: ORAL, Species: RAT, Strain/Sex: BD6/FEMALE, Target Tissue: Type of Lesion: LIVER: TUMOR, Dose [Carcinogen]: 80 MG/KG BW 1/WK FOR 8 WK, Promoter: NONE USED) is 90%, 97%, -8%, not significant; the “tumour outcome (control, treated, inhibition, significance)” value (Carcinogen: DIETHYLNITROSAMINE, 55-18-5, Dose [Inhibitor]: 0, 600 MG/L IN DRINKING WATER FOR DURATION OF STUDY BEGINNING 4 D POST CARCINOGEN TREATMENT (STUDY DURATION: 6 MO), Route [Inhibitor]: ORAL, Species: RAT, Strain/Sex: BD6/FEMALE, Target Tissue: Type of Lesion: ESOPHAGUS: TUMOR, Dose [Carcinogen]: 80 MG/KG BW 1/WK FOR 8 WK, Promoter: NONE USED) is recorded as 15%, 29%, -93%, not significant. Moreover, the “tumour outcome (control, treated, inhibition, significance)” value reads like this: (Carcinogen: DIETHYLNITROSAMINE, 55-18-5, Dose [Inhibitor]: 0, 600 MG/L IN DRINKING WATER FOR DURATION OF STUDY BEGINNING 4 D POST CARCINOGEN TREATMENT (STUDY DURATION: 6 MO), Route [Inhibitor]: ORAL, Species: RAT, Strain/Sex: BD6/FEMALE, Target Tissue: Type of Lesion: LIVER: TUMOR, Dose [Carcinogen]: 80 MG/KG BW 1/WK FOR 8 WK, Promoter: NONE USED) 90%, 97%, -8%, not significant; (Carcinogen: DIETHYLNITROSAMINE, 55-18-5, Dose [Inhibitor]: 0, 600 MG/L IN DRINKING WATER FOR DURATION OF STUDY BEGINNING 7 D PRIOR TO CARCINOGEN TREATMENT (STUDY DURATION: 6 MO), Route [Inhibitor]: ORAL, Species: RAT, Strain/Sex: BD6/FEMALE, Target Tissue: Type of Lesion: ESOPHAGUS: TUMOR, Dose [Carcinogen]: 80 MG/KG BW 1/WK FOR 8 WK, Promoter: NONE USED) 14%, 17%, -21%, not significant; (Carcinogen: DIETHYLNITROSAMINE, 55-18-5, Dose [Inhibitor]: 0, 600 MG/L IN DRINKING WATER FOR DURATION OF STUDY BEGINNING 7 D PRIOR TO CARCINOGEN TREATMENT (STUDY DURATION: 6 MO), Route [Inhibitor]: ORAL, Species: RAT, Strain/Sex: BD6/FEMALE, Target Tissue: Type of Lesion: LIVER: TUMOR, Dose [Carcinogen]: 80 MG/KG BW 1/WK FOR 8 WK, Promoter: NONE USED) 100%, 90%, 10%, not significant; (Carcinogen: N-ETHYL-N-NITROSOUREA, 759-73-9, Dose [Inhibitor]: 0, 1000 MG/KG IN DIET FOR 12 MO ADMINISTERED TO OFFSPRING OF CARCINOGEN-TREATED MOTHERS (STUDY DURATION: 12 MO), Route [Inhibitor]: ORAL, Species: RAT, Strain/Sex: ALBINO/MALE, FEMALE, Target Tissue: Type of Lesion: BRAIN: TUMOR, Dose [Carcinogen]: 75 MG/KG BW ADMINISTERED INTRAPERITONEALLY TO MOTHERS 21 D POST CONCEPTION, Promoter: NONE USED) 53/63 (84%), 21/41 (51%), 39%, p<0.05; (Carcinogen: N-ETHYL-N-NITROSOUREA, 759-73-9, Dose [Inhibitor]: 0, 1000 MG/KG IN DIET FOR 12 MO ADMINISTERED TO OFFSPRING OF CARCINOGEN-TREATED MOTHERS (STUDY DURATION: 12 MO), Route [Inhibitor]: ORAL, Species: RAT, Strain/Sex: ALBINO/MALE, FEMALE, Target Tissue: Type of Lesion: KIDNEY: TUMOR, Dose [Carcinogen]: 75 MG/KG BW ADMINISTERED INTRAPERITONEALLY TO MOTHERS 21 D POST CONCEPTION, Promoter: NONE USED) 23/63 (37%), 6/41 (15%), 59%, p<0.05; (Carcinogen: N-ETHYL-N-NITROSOUREA, 759-73-9, Dose [Inhibitor]: 0, 1000 MG/KG IN DIET FOR 12 MO ADMINISTERED TO OFFSPRING OF CARCINOGEN-TREATED MOTHERS (STUDY DURATION: 12 MO), Route [Inhibitor]: ORAL, Species: RAT, Strain/Sex: ALBINO/MALE, FEMALE, Target Tissue: Type of Lesion: PERIPHERAL NERVES: TUMOR, Dose [Carcinogen]: 75 MG/KG BW ADMINISTERED INTRAPERITONEALLY TO MOTHERS 21 D POST CONCEPTION, Promoter: NONE USED) 24/63 (38%), 5/41 (12%), 68%, p<0.05. The “tumour outcome (control, treated, inhibition, significance)” value (Carcinogen: N-ETHYL-N-NITROSOUREA, 759-73-9, Dose [Inhibitor]: 0, 1000 MG/KG IN DIET FOR 12 MO ADMINISTERED TO OFFSPRING OF CARCINOGEN-TREATED MOTHERS (STUDY DURATION: 12 MO), Route [Inhibitor]: ORAL, Species: RAT, Strain/Sex: ALBINO/MALE, FEMALE, Target Tissue: Type of Lesion: SPINAL CHORD: TUMOR, Dose [Carcinogen]: 75 MG/KG BW ADMINISTERED INTRAPERITONEALLY TO MOTHERS 21 D POST CONCEPTION, Promoter: NONE USED) is reported as 17/63 (27%), 9/41 (22%), 19%, not significant and the “tumour outcome (control, treated, inhibition, significance)” value (Carcinogen: URETHANE, 51-79-6, Dose [Inhibitor]: 0.05 UMOL/G BW GIVEN AT 6 HR INTERVALS DURING PERIOD OF 0 TO 36 HR AFTER CARCINOGEN TREATMENT FOLLOWED BY 5 MO OBSERVATI, Route [Inhibitor]: INTRAPERITONEAL, Species: MOUSE, Strain/Sex: ICR/FEMALE, Target Tissue: Type of Lesion: LUNG: PAPILLARY ADENOMA, Dose [Carcinogen]: 0.1 MG/G BW ONCE, Promoter: NONE USED) is given as 31/59 (53%), 25/43 (58%), -9%, not significant.
